Data taken from ChEMBL document CHEMBL3885861, “Open TG-GATES”.

Species: Rattus norvegicus
Assay: Open TG-GATES - Regimen: Single
Type: toxicity, organism-based, Sprague-Dawley
Set-up: regimen Single, gender Male, age 6 weeks
Details: in vivo, po, 0 mg/kg, route gavage, dose level Control; for APTT / Bas / Eos / Fbg / Hb / Ht / Lym / MCHC / MCV / Mono / Neu / PT / Plat / RBC / Ret / WBC: tissue Blood; for KIDNEY_L / KIDNEY_R / KIDNEY_TOTAL: tissue Kidney; for LIVER: tissue Liver; for ALP / ALT / AST / BUN / CRE / Ca / Cl / DBIL / GLC / IP / K / LDH / Na / PL / RALB / TBIL / TC / TG / TP / gamma-GTP: tissue Plasma

SMILES: C1CCC(C(CC2CCCCN2)C2CCCCC2)CC1 (centres undefined) [PERHEXILINE]
- TERMINAL_BW (3 h): 206.4 g
- APTT (3 h): 21.3 s
- Bas (3 h): 0%
- Eos (3 h): 0.6%
- Fbg (3 h): 324 mg/dL
- Hb (3 h): 13.5 g/dL
- Ht (3 h): 39.5%
- Lym (3 h): 80.6%
- MCHC (3 h): 34%
- MCV (3 h): 62.3 fL
- Mono (3 h): 1.4%
- Neu (3 h): 16.8%
- PT (3 h): 16 s
- Plat (3 h): 117.8 x10_4/uL
- RBC (3 h): 634.6 x10_4/ul
- Ret (3 h): 6.3%
- WBC (3 h): 77.4 x10_2/uL
- KIDNEY_L (3 h): 0.9 g
- KIDNEY_R (3 h): 0.9 g
- KIDNEY_TOTAL (3 h): 1.8 g
- LIVER (3 h): 9.2 g
- ALP (3 h): 1964.4 IU/L
- ALT (3 h): 42.6 IU/L
- AST (3 h): 70.8 IU/L
- BUN (3 h): 14.8 mg/dL
- CRE (3 h): 0.1 mg/dL
- Ca (3 h): 10.9 mg/dL
- Cl (3 h): 106.8 meq/L
- DBIL (3 h): 0.002 mg/dL
- GLC (3 h): 192.6 mg/dL
- IP (3 h): 7.8 mg/dL
- K (3 h): 4.2 meq/L
- LDH (3 h): 147.6 IU/L
- Na (3 h): 140.4 meq/L
- PL (3 h): 144.4 mg/dL
- RALB (3 h): 3.2 g/dL
- TBIL (3 h): 0.014 mg/dL
- TC (3 h): 79.8 mg/dL
- TG (3 h): 63.4 mg/dL
- TP (3 h): 5.7 g/dL
- gamma-GTP (3 h): 0.8 IU/L
- TERMINAL_BW (6 h): 210.1 g
- APTT (6 h): 20.9 s
- Bas (6 h): 0%
- Eos (6 h): 0.4%
- Fbg (6 h): 317.4 mg/dL
- Hb (6 h): 13.2 g/dL
- Ht (6 h): 39.3%
- Lym (6 h): 79.8%
- MCHC (6 h): 33.6%
- MCV (6 h): 65.6 fL
- Mono (6 h): 2.2%
- Neu (6 h): 16.6%
- PT (6 h): 15.7 s
- Plat (6 h): 130.2 x10_4/uL
- RBC (6 h): 599.8 x10_4/ul
- Ret (6 h): 7.4%
- WBC (6 h): 75.5 x10_2/uL
- KIDNEY_L (6 h): 1 g
- KIDNEY_R (6 h): 1 g
- KIDNEY_TOTAL (6 h): 1.9 g
- LIVER (6 h): 9.3 g
- ALP (6 h): 1510 IU/L
- ALT (6 h): 37.8 IU/L
- AST (6 h): 67.8 IU/L
- BUN (6 h): 11.4 mg/dL
- CRE (6 h): 0.1 mg/dL
- Ca (6 h): 10.8 mg/dL
- Cl (6 h): 105.2 meq/L
- DBIL (6 h): 0 mg/dL
- GLC (6 h): 178.8 mg/dL
- IP (6 h): 9.8 mg/dL
- K (6 h): 4 meq/L
- LDH (6 h): 239.2 IU/L
- Na (6 h): 140.4 meq/L
- PL (6 h): 147.8 mg/dL
- RALB (6 h): 3 g/dL
- TBIL (6 h): 0.018 mg/dL
- TC (6 h): 81.2 mg/dL
- TG (6 h): 77.4 mg/dL
- TP (6 h): 5.6 g/dL
- gamma-GTP (6 h): 1 IU/L
- TERMINAL_BW (9 h): 206.4 g
- APTT (9 h): 21.8 s
- Bas (9 h): 0%
- Eos (9 h): 0.6%
- Fbg (9 h): 319 mg/dL
- Hb (9 h): 13.2 g/dL
- Ht (9 h): 39.2%
- Lym (9 h): 75.8%
- MCHC (9 h): 33.7%
- MCV (9 h): 64.6 fL
- Mono (9 h): 1.8%
- Neu (9 h): 20.4%
- PT (9 h): 15.6 s
- Plat (9 h): 131 x10_4/uL
- RBC (9 h): 606.6 x10_4/ul
- Ret (9 h): 7.3%
- WBC (9 h): 89.6 x10_2/uL
- KIDNEY_L (9 h): 0.9 g
- KIDNEY_R (9 h): 1 g
- KIDNEY_TOTAL (9 h): 1.9 g
- LIVER (9 h): 9.2 g
- ALP (9 h): 1422.6 IU/L
- ALT (9 h): 33.8 IU/L
- AST (9 h): 62.2 IU/L
- BUN (9 h): 11.4 mg/dL
- CRE (9 h): 0.1 mg/dL
- Ca (9 h): 10.9 mg/dL
- Cl (9 h): 105.6 meq/L
- DBIL (9 h): 0 mg/dL
- GLC (9 h): 193.8 mg/dL
- IP (9 h): 9.4 mg/dL
- K (9 h): 3.9 meq/L
- LDH (9 h): 196.4 IU/L
- Na (9 h): 139.6 meq/L
- PL (9 h): 135.6 mg/dL
- RALB (9 h): 3 g/dL
- TBIL (9 h): 0.012 mg/dL
- TC (9 h): 76.4 mg/dL
- TG (9 h): 70 mg/dL
- TP (9 h): 5.6 g/dL
- gamma-GTP (9 h): 0.8 IU/L
- TERMINAL_BW (24 h): 228.6 g
- APTT (24 h): 20.7 s
- Bas (24 h): 0%
- Eos (24 h): 0.8%
- Fbg (24 h): 315.6 mg/dL
- Hb (24 h): 13.1 g/dL
- Ht (24 h): 39.4%
- Lym (24 h): 74.8%
- MCHC (24 h): 33.3%
- MCV (24 h): 65.2 fL
- Mono (24 h): 2.4%
- Neu (24 h): 21.2%
- PT (24 h): 16 s
- Plat (24 h): 120.5 x10_4/uL
- RBC (24 h): 604.2 x10_4/ul
- Ret (24 h): 7.2%
- WBC (24 h): 89.3 x10_2/uL
- KIDNEY_L (24 h): 1 g
- KIDNEY_R (24 h): 1 g
- KIDNEY_TOTAL (24 h): 2.1 g
- LIVER (24 h): 11.2 g
- ALP (24 h): 1688.8 IU/L
- ALT (24 h): 42.6 IU/L
- AST (24 h): 66.4 IU/L
- BUN (24 h): 16.8 mg/dL
- CRE (24 h): 0.1 mg/dL
- Ca (24 h): 11 mg/dL
- Cl (24 h): 105.4 meq/L
- DBIL (24 h): 0 mg/dL
- GLC (24 h): 196.6 mg/dL
- IP (24 h): 7.1 mg/dL
- K (24 h): 4.3 meq/L
- LDH (24 h): 177.6 IU/L
- Na (24 h): 141.6 meq/L
- PL (24 h): 154.2 mg/dL
- RALB (24 h): 3.2 g/dL
- TBIL (24 h): 0.014 mg/dL
- TC (24 h): 76.8 mg/dL
- TG (24 h): 149.4 mg/dL
- TP (24 h): 5.7 g/dL
- gamma-GTP (24 h): 1 IU/L
